Data on 13 molecules can be found in patent US20240166646A1, “1H-PYRROLO[2,3-B]PYRIDINE DERIVATIVES AS BCL-2 INHIBITORS FOR THE TREATMENT OF NEOPLASTIC AND AUTOIMMUNE DISEASES” (Newave Pharmaceutical Inc., priority 2020, published 2024).

Experiment [1] has as its system BCL-2-dependent acute lymphoblastic leukemia (ALL) cell line RS4; 11 with G101V mutation. Description: In vitro anti-proliferation assay (ATPlite) in RS4; 11 with G101V mutation. The format is cell-based. The note with it: about 72 hours incubation, medium with 5% FBS or 10% normal human serum, ATPlite luminescence. How it is done: Cell antiproliferation was assayed by PerkinElmer ATPlite™ Luminescence Assay System. Briefly, the various test cancer cell lines were plated at a density of about 1×10^4 cells per well in Costar 96-well plates, and were incubated with different concentrations of compounds for about 72 hours in medium supplemented with 5% FBS or 10% normal human serum (NHS). One lyophilized substrate solution vial was then reconstituted by adding 5 mL of substrate buffer solution, and was agitated gently until the solution was homogeneous. About 50 μL of mammalian cell lysis solution was added to 100 μL of cell suspension per well of a microplate, and the plate was shaken for about five minutes in an orbital shaker at ˜700 rpm. This procedure was used to lyse the cells and to stabilize the ATP. Next, 50 μL substrate solution was added to the wells and microplate was shaken for five minutes in an orbital shaker at ˜700 rpm. Finally, the luminescence was measured by a PerkinElmer TopCount® Microplate Scintillation Counter. Such assays, carried out with a range of doses of test compounds, allowed the determination of the cellular anti-antiproliferative IC50 of the compounds of the present invention.
(ATP-based viability assays read luminescence as a measure of living cells.)

For another experiment, the target named is Bcl-2 (Homo sapiens (Human), UniProt P10415). In words: Bcl-2 competition binding (fluorescence polarization) assay. The note with it: fluorescein labeled BH3 peptide 15 nM, Bcl-2 protein 30 nM, 3 hours of incubation at room temperature. As for the experimental part: Biological Example 1: Bcl-2 Competition Binding (Fluorescence Polarization) Assay
Bcl-2, sequence (P10415 whole entry): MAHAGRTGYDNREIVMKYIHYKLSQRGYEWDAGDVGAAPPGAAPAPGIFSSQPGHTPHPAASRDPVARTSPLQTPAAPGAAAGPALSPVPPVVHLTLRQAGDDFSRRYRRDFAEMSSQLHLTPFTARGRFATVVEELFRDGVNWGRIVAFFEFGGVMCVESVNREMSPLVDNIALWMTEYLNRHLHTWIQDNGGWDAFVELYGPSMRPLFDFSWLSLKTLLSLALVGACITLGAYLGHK
The fluorescence-labeled 23 amino acid peptide BH3 was purchased from CalBiochem ([…]). […] This binding assay was performed in 96-well plate and with each assay contained 15 and 30 nM of labeled peptide and purified Bcl-2 protein (purchased from R&D Systems, Inc). The assay buffer contained 20 mM Hepes (pH 7.0), 50 mM KCl, 5 mM MgCl2, 20 mM Na2MoO4, 0.1 mg/mi Bovine Gamma Globulin and 0.01% NP40. Compounds were diluted in DMS0 and added to the final assay with concentration range from 20 μM to 2 nM. The polarization degree (mP) value was determined by BioTek Synergy II with background subtraction after 3 hours of incubation at room temperature. IC50 was calculated using Prism software with sigmoidal dose-response curve fitting. ABT-737 was used as reference compound. Such assays, carried out with a range of doses of test compounds, allowed the determination of an approximate IC50 value.
A general note: In fluorescence polarisation assays a small probe gives low polarisation when free and higher when bound to something large.

Where a name gives a salt, the structure may show the parent alone.

A word on the IC50: it is the concentration that inhibits the measured activity by half. In the case of `CC(C)Oc1ccccc1[C@@H]1CCCN1C1CC2(CCN(c3ccc(C(=O)NS(=O)(=O)c4ccc(NCC5CCC(C)(O)CC5)c([N+](=O)[O-])c4)c(N4c5cc6cc[nH]c6nc5O[C@@H]5COC[C@H]54)c3)CC2)C1` (stereo partly drawn) [Example 45, N-((4-((((1r,4r)-4-hydroxy-4-methylcyclohexyl)methyl)amino)-3-nitrophenyl)sulfonyl)-4-(2-((S)-2-(2-isopropoxyphenyl)pyrrolidin-1-yl)-7-azaspiro[3.5]nonan-7-yl)-2-((5aR,8aS)-5a,6,8,8a-tetrahydrofuro[3,4-b]pyrrolo[3′,2′:5,6]pyrido[3,2-e][1,4]oxazin-5(1H)-yl)benzamide], the figures for the IC50 (in experiment [1]; on Bcl-2) were 23.8 nM and 0.198 nM, respectively.

With `CC(C)c1ccccc1[C@@H]1CCCN1C1CC2(CCN(c3ccc(C(=O)NS(=O)(=O)c4ccc(NCC5CCOCC5)c([N+](=O)[O-])c4)c(N4c5cc6cc[nH]c6nc5O[C@@H]5COC[C@H]54)c3)CC2)C1` [Example 1, 2-[(11R,15S)-13,16-dioxa-2,4,10-triazatetracyclo[7.7.0.0^[3,7]0.0^[11,15]]hexadeca-1(9),2,5,7-tetraen-10-yl]-4-[2-[(2S)-2-(2-isopropylphenyl)pyrrolidin-1-yl]-7-azaspiro[3.5]nonan-7-yl]-N-[3-nitro-4-[(oxan-4-ylmethyl)amino]benzenesulfonyl]benzamide], the IC50 in experiment [1] is 5.1 nM; on Bcl-2 it was 0.1 nM.

On to `Cc1ccccc1[C@@H]1CCCN1C1CC2(CCN(c3ccc(C(=O)NS(=O)(=O)c4ccc(NCC5CCC(C)(O)CC5)c([N+](=O)[O-])c4)c(N4c5cc6cc[nH]c6nc5O[C@@H]5COC[C@H]54)c3)CC2)C1` (stereo partly drawn) [Example 40, N-((4-((((1s,4s)-4-hydroxy-4-methylcyclohexyl)methyl)amino)-3-nitrophenyl)sulfonyl)-2-((5aR,8aS)-5a,6,8,8a-tetrahydrofuro[3,4-b]pyrrolo[3′,2′:5,6]pyrido[3,2-e][1,4]oxazin-5(1H)-yl)-4-(2-((S)-2-(o-tolyl)pyrrolidin-1-yl)-7-azaspiro[3.5]nonan-7-yl)benzamide], for which the IC50 in experiment [1] was determined as 34.7 nM; on Bcl-2, 0.2 nM.

On to `Cc1ccccc1[C@@H]1COCCN1C1CC2(CCN(c3ccc(C(=O)NS(=O)(=O)c4ccc(NCC5CCOCC5)c([N+](=O)[O-])c4)c(N4c5cc6cc[nH]c6nc5O[C@@H]5COC[C@H]54)c3)CC2)C1` [Example 50, N-((3-nitro-4-(((tetrahydro-2H-pyran-4-yl)methyl)amino)phenyl)sulfonyl)-2-((5aR,8aS)-5a,6,8,8a-tetrahydrofuro[3,4-b]pyrrolo[3′,2′:5,6]pyrido[3,2-e][1,4]oxazin-5(1H)-yl)-4-(2-((R)-3-(o-tolyl)morpholino)-7-azaspiro[3.5]nonan-7-yl)benzamide], for which the figures for the IC50 (in experiment [1] (RS4-11); on Bcl-2) were 71.8 nM and 0.265 nM, respectively.

On to `CC(C)c1ccccc1[C@@H]1CCCN1C1CC2(CCN(c3ccc(C(=O)NS(=O)(=O)c4ccc(NC[C@H]5CC[C@@](C)(O)CC5)c([N+](=O)[O-])c4)c(N4c5cc6cc[nH]c6nc5O[C@@H]5COC[C@H]54)c3)CC2)C1` [Example 3-0B], for which the half-maximal inhibitory concentration (IC50) in experiment [1] turned out to be 25 nM; on Bcl-2, 0.13 nM.

For the molecule `CC(C)c1ccsc1[C@@H]1CCCN1C1CC2(CCN(c3ccc(C(=O)NS(=O)(=O)c4ccc(NCC5CCOCC5)c([N+](=O)[O-])c4)c(N4c5cc6cc[nH]c6nc5O[C@@H]5COC[C@H]54)c3)CC2)C1` [Example 63, 4-(2-((S)-2-(3-isopropylthiophen-2-yl)pyrrolidin-1-yl)-7-azaspiro[3.5]nonan-7-yl)-N-((3-nitro-4-(((tetrahydro-2H-pyran-4-yl)methyl)amino)phenyl)sulfonyl)-2-((5aR,8aS)-5a,6,8,8a-tetrahydrofuro[3,4-b]pyrrolo[3′,2′:5,6]pyrido[3,2-e][1,4]oxazin-5(1H)-yl)benzamide hydrochloride], the IC50 was found to be 49.6 nM in experiment [1] (RS4-11) and 0.314 nM at Bcl-2.

With `O=C(NS(=O)(=O)c1ccc(NCC2CCOCC2)c([N+](=O)[O-])c1)c1ccc(N2CCC3(CC2)CC(N2CCC[C@H]2c2ccccc2NCC(F)(F)F)C3)cc1N1c2cc3cc[nH]c3nc2O[C@@H]2COC[C@H]21` [Example 27, 2-[(11R,15S)-13,16-dioxa-2,4,10-triazatetracyclo[7.7.0.0^{3,7}.0^{11,15}]hexadeca-1(9),2,5,7-tetraen-10-yl]-N-{3-nitro-4-[(oxan-4-ylmethyl)amino]benzenesulfonyl}-4-{2-[(2S)-2-{2-[(2,2,2-trifluoroethyl)amino]phenyl}pyrrolidin-1-yl]-7-azaspiro[3.5]nonan-7-yl}benzamide], the IC50 at Bcl-2 amounted to 1.2 nM.

Take `CS(=O)(=O)Nc1ccccc1[C@@H]1CCCN1C1CC2(CCN(c3ccc(C(=O)NS(=O)(=O)c4ccc(NCC5CCOCC5)c([N+](=O)[O-])c4)c(N4c5cc6cc[nH]c6nc5O[C@@H]5COC[C@H]54)c3)CC2)C1` [Example 25, 2-[(11R,15S)-13,16-dioxa-2,4,10-triazatetracyclo[7.7.0.0^{3,7}.0^{11,15}]hexadeca-1(9),2,5,7-tetraen-10-yl]-4-{2-[(2S)-2-(2-methanesulfonamidophenyl)pyrrolidin-1-yl]-7-azaspiro[3.5]nonan-7-yl}-N-{3-nitro-4-[(oxan-4-ylmethyl)amino]benzenesulfonyl}benzamide]: on Bcl-2, the IC50 came to 14.8 nM.

As to `COc1ccccc1[C@@H]1CCCN1C1CC2(CCN(c3ccc(C(=O)NS(=O)(=O)c4ccc(NCC5CCOCC5)c([N+](=O)[O-])c4)c(N4c5cc6cc[nH]c6nc5O[C@@H]5COC[C@H]54)c3)CC2)C1` [Example 16, 2-[(11R,15S)-13,16-dioxa-2,4,10-triazatetracyclo[7.7.0.0^{3,7}.0^{11,15}]hexadeca-1(9),2,5,7-tetraen-10-yl]-4-{2-[(2S)-2-(2-methoxyphenyl)pyrrolidin-1-yl]-7-azaspiro[3.5]nonan-7-yl}-N-{3-nitro-4-[(oxan-4-ylmethyl)amino]benzenesulfonyl}benzamide], the concentration for half-maximal inhibition (IC50) on Bcl-2 is 0.09 nM.

As to `O=C(NS(=O)(=O)c1ccc(NCC2CCOCC2)c([N+](=O)[O-])c1)c1ccc(N2CCC3(CC2)CC(N2CCC[C@H]2c2ccccc2C(F)(F)F)C3)cc1N1c2cc3cc[nH]c3nc2O[C@@H]2COC[C@H]21` [Example 15, 2-[(11R,15S)-13,16-dioxa-2,4,10-triazatetracyclo[7.7.0.0^{3,7}.0^{11,15}]hexadeca-1(9),2,5,7-tetraen-10-yl]-N-{3-nitro-4-[(oxan-4-ylmethyl)amino]benzenesulfonyl}-4-{2-[(2S)-2-[2-(trifluoromethyl)phenyl]pyrrolidin-1-yl]-7-azaspiro[3.5]nonan-7-yl}benzamide hydrochloride], the IC50 at Bcl-2 turned out to be 0.2 nM.

`O=C(NS(=O)(=O)c1ccc(NCC2CCOCC2)c([N+](=O)[O-])c1)c1ccc(N2CCC3(CC2)CC(N2CCC[C@H]2c2ccccc2F)C3)cc1N1c2cc3cc[nH]c3nc2O[C@@H]2COC[C@H]21` [Example 24, 2-[(11R,15S)-13,16-dioxa-2,4,10-triazatetracyclo[7.7.0.0^{3,7}.0^{11,15}]hexadeca-1(9),2,5,7-tetraen-10-yl]-4-{2-[(2S)-2-(2-fluorophenyl)pyrrolidin-1-yl]-7-azaspiro[3.5]nonan-7-yl}-N-{3-nitro-4-[(oxan-4-ylmethyl)amino]benzenesulfonyl}benzamide hydrochloride]: the IC50 on Bcl-2 was 0.42 nM.

For `CP(C)(=O)c1ccccc1[C@@H]1CCCN1C1CC2(CCN(c3ccc(C(=O)NS(=O)(=O)c4ccc(NCC5CCOCC5)c([N+](=O)[O-])c4)c(N4c5cc6cc[nH]c6nc5O[C@@H]5COC[C@H]54)c3)CC2)C1` [Example 29, 4-{2-[(2S)-2-[2-(dimethylphosphoryl)phenyl]pyrrolidin-1-yl]-7-azaspiro[3.5]nonan-7-yl}-2-[(11R,15S)-13,16-dioxa-2,4,10-triazatetracyclo[7.7.0.0^{3,7}.0^{11,15}]hexadeca-1(9),2,5,7-tetraen-10-yl]-N-{3-nitro-4-[(oxan-4-ylmethyl)amino]benzenesulfonyl}benzamide], the IC50 on Bcl-2 was 1.39 nM.

As to `CC1(C)C[C@@H](c2ccccc2[C@@H]2CCCN2C2CC3(CCN(c4ccc(C(=O)NS(=O)(=O)c5ccc(NCC6CCOCC6)c([N+](=O)[O-])c5)c(N5c6cc7cc[nH]c7nc6O[C@@H]6COC[C@H]65)c4)CC3)C2)CCO1` [Example 31, 4-{2-[(2S)-2-{2-[(4S)-2,2-dimethyloxan-4-yl]phenyl}pyrrolidin-1-yl]-7-azaspiro[3.5]nonan-7-yl}-2-[(11R,15S)-13,16-dioxa-2,4,10-triazatetracyclo[7.7.0.0^{3,7}.0^{11,15}]hexadeca-1(9),2,5,7-tetraen-10-yl]-N-{3-nitro-4-[(oxan-4-ylmethyl)amino]benzenesulfonyl}benzamide], the half-inhibitory concentration (IC50) on Bcl-2 was 30.7 nM.
